From patent US20230145868A1, “UREA INHIBITORS OF MICRO-RNA” (Board of Regents, The University of Texas System, priority 2020, published 2023)
Where two headings read alike, the source gives them in different places.

Experiments:
[1] = tested on: miR-10b; assay: Luciferase reporter assay of miR-10b inhibition, MDA-MB-231 cells; assay type: cell-based; details: Homo sapiens, MDA-MB-231, 48 h
Description: To identify miR-10b inhibitors, a luciferase reporter system was designed with complementary oligonucleotides for miR-10b.This luciferase reporter would repress Renilla luciferase signal in the presence of a functional mature miR-10b. However, in the presence of a small molecule that can inhibit mature miR-10b expression or affect its downstream function, the luciferase expression is restored again.
The PsiCHECK™-2 luciferase reporter vector was acquired from Promega™, Complementary oligonucleotides for hsa-miR-10b were designed based on the mature miRNA sequence and obtained from Thermo Fisher Scientific. In the design of the microRNA target sequence, several base pairs were added to have two different restriction sites recognizable by the enzyme SgfI at one side, and PmeI on the other (present in the vector as well). In addition, the insert was designed with a restriction site for SacI enzyme in order to have an additional site to digest the vector when monitoring colonies for the presence/absence of the insert. The designed oligonucleotides were annealed as follows: Complementary strands were mixed at a 1:1 molar ratio in a micro centrifuge tube. The mixture was diluted to a final concentration of 1 pmol/μl with a buffer solution of 10 mM Tris, 1 mM EDTA, and 50 mM NaCl (pH 8.0). Mixes were incubated at 95° C. for 5 min, and then the heat was reduced gradually for 70 min, until reaching 4° C. The annealed oligonucleotides were digested along with the PsiCHECK™2 vector with SgfI and PmeI and ligated at the 3′-UTR (downstream) of the Renilla luciferase reporter gene in the PsiCHECK™-2vector. Insert sequences were further confirmed in two ways: enzymatic digestion and sequencing.
MCF7 cells were seeded 24 h prior to transfection in 96 well plates (2.0×10^4 cells/well). For testing the sensitivity of the assay, antagomiRs and pre-miRs against miR-10b were used at a final concentration of 100 nM. For testing small molecule miRNA inhibitors, the compounds of interest were added to a final concentration of 10 μM. The assay was done in MCF7 or MDA-MB-231 cells at approximately 60% confluence using Lipofectamine in Opti-Mem media with the final vector concentration of 250 ng/mL. All transfections were performed in triplicate for statistical analysis. The cells were incubated at 37° C. for 6 h, followed by replacement of the transfected media with fresh media. After 48 h incubation, the media was removed, and cells were lysed and assayed with a Dual Luciferase Assay Kit (Promega) using a Vi-Tech luminometer. The ratio of Renilla to firefly luciferase expression was calculated for each of the triplicates.

[2] = tested on: PTEN; assay: Western blot, PTEN expression; assay type: cell-based, human
Procedure: (§1) Proteins are collected from cultured cells and lysed with 10× Lysis Buffer (Cell Signaling) freshly supplemented with a complete protease inhibitor cocktail and phosphatase inhibitors (Sigma). Bradford assay is used to measure protein concentration. Proteins are separated by polyacrylamide gel (Bio-rad) electrophoresis and were transferred to a 0.2 μm nitrocellulose membrane (Bio-rad). Quantification of protein expression was conducted using the image analysis software ImageJ.

[3] = tested on: LN229 cell line; assay: MTS proliferation assay, LN229; assay type: cell-based, human; details: 5 and 10 μM, beginning at 48 h of treatment
Procedure: (§2) IC50 dose-response curves were determined using the cell proliferation assay system. Briefly, 5,000 or 10,000 cells of each cell line were plated in 96-well microculture plates in replicates of either 4 or 6. When cells became adherent, either 5 or 10 sequentially decreasing doses of the small molecule miRNA inhibitor were diluted into new media and added to individual wells. After either 24 or 48 hours, of a tetrazolium salt such as MTS, MTT, or WST-8 was added to each well at the same time of day as treatment and incubated for either 2 or 3 h at 37° C. The OD, measuring at the appropriate wavelength for the dye, was read at on a microplate spectrophotometer.
(§3) Cell proliferation is determined using a colorimetric assay. A tetrazolium salt such as MTS, MTT, or WST-8 is reduced by dehydrogenase activities in cells to give a formazan dye, which is soluble in the tissue culture media. The amount of the formazan dye (generated by the activities of dehydrogenases in cells, and directly proportional to the number of living cells) is measured after 3 h of incubation. The OD is read at 450 nm on a microplate spectrophotometer and growth values (%) are calculated as (OD treated cells/OD untreated cells)×100. The experiments are performed in triplicate. […] The OD is read at 450/550 nm on a microplate spectrophotometer, after one to seven days of the treatment. […]

[4] = tested on: U251 cell line; assay: MTS proliferation assay, U251; assay type: cell-based, human; details: 5 and 10 μM, beginning at 48 h of treatment
Procedure: as §2, §3

[5] = tested on: Drosha; assay: Western blot, Drosha expression; assay type: cell-based, human; details: AsPC1, AGS, U251, LN229
Procedure: as §1

[6] = tested on: Dicer; assay: Western blot, Dicer expression; assay type: cell-based, human; details: AsPC1, AGS, U251, LN229
Procedure: as §1

[7] = tested on: U251, LN229, AGS, AsPC1 cell lines; assay: Cell viability IC50 dose-response curves; assay type: cell-based, human; details: majority of cell lines (U251, LN229, AGS, AsPC1); values not given
Procedure: as §2

[8] = tested on: U251 brain cancer cell line; assay: Cell cycle analysis via flow cytometry; assay type: cell-based, human; details: 5 μM
Procedure: (§4) In 6-well plates, 1×10^5 cells/mL were added into each well. After 24 h, sequential concentrations of DMSO and 4 based were administered and the plates were incubated for 48 h. The supernatant and adherent cells were collected and centrifugated. Each dose was done in triplicate, with each sample composing two wells. For apoptosis analysis, the supernatant was discarded after centrifugation and the pellet washed with PBS twice. Then, BD Annexin V-FITC/PI used to stain the cells for analysis via flow cytometry on the Gallios machine. For cell cycle analysis, after washing with PBS, cells were fixed with ethanol and incubated. They, were treated with RNase enzyme and analyzed.

[9] = tested on: AGS gastric cell line; assay: Annexin V/PI apoptosis assay by flow cytometry, AGS; assay type: cell-based, human; details: up to 10 μM, 48 h
Procedure: as §4

[10] = Table 5, MDA-MB-231, 10 μM compound, vs negative control (DMSO), mean of triplicate, read-out: n-fold increase in luciferase expression, Mean
[11] = Table 5, MDA-MB-231, 10 μM compound, vs negative control (DMSO), replicate #1, read-out: n-fold increase in luciferase expression, #1
[12] = Table 5, MDA-MB-231, 10 μM compound, vs negative control (DMSO), replicate #2, read-out: n-fold increase in luciferase expression, #2
[13] = Table 5, MDA-MB-231, 10 μM compound, vs negative control (DMSO), replicate #3, read-out: n-fold increase in luciferase expression, #3
[14] = Table 7, MDA-MB-231, second biological replicant, 10 μM compound, mean of triplicate, read-out: n-fold increase in luciferase expression, Mean
[15] = Table 7, MDA-MB-231, second biological replicant, 10 μM compound, replicate #1, read-out: n-fold increase in luciferase expression, #1
[16] = Table 7, MDA-MB-231, second biological replicant, 10 μM compound, replicate #2, read-out: n-fold increase in luciferase expression, #2
[17] = Table 7, MDA-MB-231, second biological replicant, 10 μM compound, replicate #3, read-out: n-fold increase in luciferase expression, #3

Structure (SMILES)	fold induction at 10 µM [1, 10]	fold induction at 10 µM [1, 11]	fold induction at 10 µM [1, 12]	fold induction at 10 µM [1, 13]	fold induction at 10 µM [1, 14]	fold induction at 10 µM [1, 15]	fold induction at 10 µM [1, 16]	fold induction at 10 µM [1, 17]	PTEN expression (Western blot) ([2]; LN229 brain cancer cell line)	PTEN expression (Western blot) ([2]; U251 brain cancer cell line)	proliferation (MTS), every 24 h over 96 h [3]	proliferation (MTS), every 24 h over 96 h [4]	Drosha expression (Western blot) [5]	Dicer expression (Western blot) [6]	IC50 at 48 h compared with IC50 at 24 h [7]	cell cycle phase distribution [8]	apoptotic cells [9]
Cc1ccc(F)c(NC(=O)Nc2ccc(-c3cncnc3)cc2)c1 [Example 2, 1-(2-fluoro-5-methylphenyl)-3-(4-(pyrimidin-5-yl)phenyl)urea]	1.58	1.45	1.9	1.38	2.13	2.38	1.88	2.15									
Cc1ccc(F)c(NC(=O)Nc2ccc(-c3cccc4cn[nH]c34)cc2)c1 [Example 4, 1-(4-(1H-indazol-7-yl)phenyl)-3-(2-fluoro-5-methylphenyl)urea]	1.43	1.36	1.7	1.24	1.55	1.81	1.8	1.05	upregulation of PTEN	upregulation of PTEN	significant difference in proliferation	significant difference in proliferation	little to no variation	little to no variation	lower than the corresponding IC50 value at 24 h	clear increase shown at the G2/M phase	gradual increase
